Data from patent publication US20170058348A1, “Predictive mRNA Biomarkers for the Prediction of the Treatment with Methotrexate (MTX)” (Charité - Universitätsmedizin Berlin, priority 2014, published 2017).
Values joined by “and” are separate entries in the source; they are usually repeats but may differ in a detail not shown here. Equal values may be shown once.

Legend:
[1] = system: patients with a clinically confirmed RA; experiment: Clinical response to MTX therapy in RA patients (DAS28, EULAR criteria); type: in vivo, human; details: Health Assessment Questionnaire; one line per individual RA patient; during MTX treatment
Experimental: […] patients with a clinically confirmed RA were examined in the series of tests for the identification and definition of biomarkers for therapy prediction with MTX. In this regard, 5 ml of whole blood was taken from the patients in 2 PAXgene tubes (PreAnalytiX, Hombrechtikon, Switzerland) and turned for 24 hours on an overhead roller at 20° C. (20 rpm); afterwards, they were frozen at −20° C. until worked up. The patient samples were acquired in the context of two clinical studies under standard conditions (HitHard study; n=29; own clinical study; n=22) and after authorization by the ethics commission of the charity, as well as the agreement of the patients. The clinical data, prior to MTX therapy and over the course of >1 year, were stored in the context of the study conditions in a clinical database in accordance with ISO 9001 standard guidelines. The calculation of the assessment of the MTX response before and during the therapy periods was carried out in accordance with the guidelines from the European League Against Rheumatism (ELUAR) using the “Disease Activity Score” considering 28 joints (DAS28; (van Gestel et al, 1999)). The MTX therapy response was classified, in accordance with the guidelines, into the following three groups: responders (R), moderate responders (MR) and non-responders (NR). […]

RA patients = details: after a year (Furst 1996); cited from earlier work

**Q.** For `CN(Cc1cnc2nc(N)nc(N)c2n1)c1ccc(C(=O)N[C@@H](CCC(=O)O)C(=O)O)cc1` [MTX, methotrexate], which HAQ [1] is on record?
**A.** Its HAQ is 0.6 (2×) and 0.8 and 1.3 (3×) and 0.3 (3×) and 0.0 (3×) and 0.1 (4×) and 1.0 (2×) and 0.5 (2×) and 0.75 and 1.1 (3×) and 0.4 and 1.4 and 0.9 and 1.5 and 1.9 and 2.3.

**Q.** What about the sustained success rates (RA patients) of the same compound?
**A.** The sustained success rates was 40-50%.
